Activity calls are given as the source filed them.
Experiments:
Vero [1] = assay: Vero 76 cell viability after compound exposure – Vero 76 cells, synthesized analogs, cytotoxicity control for West Nile virus antiviral project, SAR follow-up (AID 2414); assay type: functional; conditions: Chlorocebus sabaeus
Vero [2] = assay: Vero cell viability after compound exposure – synthesized analogs, set II, cytotoxicity control for West Nile virus antiviral project, SAR follow-up (AID 2402); assay type: functional; conditions: Chlorocebus sabaeus
Galanin receptor type 2 = Galanin receptor type 2 (Homo sapiens, UniProt O43603); assay: Dose Response cell-based high-throughput screening assay to identify agonists of galanin receptor 2 (GALR2). [Related pubchem assays: 864 ]; assay type: functional
Nonstructural protein 1 = Nonstructural protein 1 (Influenza A virus, UniProt Q194T2); assay type: functional, Influenza A virus (A/California/07/2009(H1N1))
[3] = system: Streptococcus sp. 'group A'; assay: Streptococcus pyogenes SK(-)GAS viability under kanamycin – luminescence, BacTiterGlo, confirmation, counter-screen for streptokinase expression inhibitor project, dose response (AID 1900); assay type: functional, organism-based
cells [4] = conditions: A549
INS1 = assay: INS-1E survival protection against cytokine death – cell-based, luminescence, retest, dose response (AID 449756); assay type: functional; conditions: Rattus norvegicus;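 note: cell death triggered by IL-1 beta plus TNF-alpha plus IFN-gamma mixture; protective hits raise ATP signal compared with cytokine alone wells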
Streptococcus = assay: GAS UMAA2166 growth inhibition – luminescence, BacTiterGlo, counter-screen for streptokinase expression inhibitor project, dose response (AID 1915); assay type: functional, organism-based;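 note: potency for reduction of bacterial viability or growth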
[5] = viability loss in HepG2 liver cells – cell-based, ATP luminescence, cherry-pick, set 6, cytotoxicity control, dose response (AID 1053125); assay type: functional
[6] = HGIII-sPLA2 enzyme inhibition potency – biochemical, QFRET, IC50, dose response (AID 743457);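 note: green fluorescence rise as the enzyme cleaves BODIPY PC-A2 in liposomes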
cells [7] = conditions: HEK293
[8] = Luminescence Cell-Based Dose Confirmation HTS to Identify Activators of 5'UTR Stem-Loop Driven Alpha-Synuclein mRNA Translation in H4 Neuroglioblastoma Cells. [Related pubchem assays: 1829 (Project Summary), 1814 (Primary HTS)]; assay type: functional
[9] = biological target: Voltage-gated inwardly rectifying potassium channel KCNH2 (Homo sapiens, UniProt Q12809); assay: concentration-dependent hERG rescue from blockers – cell-based, thallium flux, dose response (AID 2121); assay type: ADME
H4 = assay: Luminescence Cell-Based Dose Response HTS to Identify Activators of 5'UTR Stem-Loop Driven Prion Protein mRNA Translation in H4 Neuroglioblastoma Cells. [Related pubchem assays: 1829 (Project Summary), 1814 (Primary HTS)]; assay type: functional; conditions: Homo sapiens
[10] = Luminescence Cell-Based Dose Response HTS to Identify Activators of Luciferase Translation or Activity in H4 […] Cells. [Related pubchem assays: 1829 (Project Summary), 1814 (Primary HTS)]; assay type: functional
[11] = biological target: Voltage-gated N-type calcium channel alpha-1B subunit/Amyloid beta A4 precursor protein-binding family A member 1 (Homo sapiens, UniProt Q00975+Q02410); assay type: protein assay
Genome polyprotein = Genome polyprotein (Hepatitis C virus, UniProt Q2Q167); assay: disruption of hepatitis C core self-association – biochemical, TR-FRET, dose response (AID 2159); parameters: species or system Hepacivirus hominis;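 note: blocks dimerization of HCV core protein measured by TR-FRET between tagged core106 pairs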
[12] = biological target: T1, Tyrosine-protein phosphatase non-receptor type 7 (Homo sapiens, UniProt P35236); assay: HePTP tyrosine phosphatase activity blockers – biochemical, absorbance, leukemia target, primary screen (AID 521); assay type: functional
T1 sequence (P35236 whole entry): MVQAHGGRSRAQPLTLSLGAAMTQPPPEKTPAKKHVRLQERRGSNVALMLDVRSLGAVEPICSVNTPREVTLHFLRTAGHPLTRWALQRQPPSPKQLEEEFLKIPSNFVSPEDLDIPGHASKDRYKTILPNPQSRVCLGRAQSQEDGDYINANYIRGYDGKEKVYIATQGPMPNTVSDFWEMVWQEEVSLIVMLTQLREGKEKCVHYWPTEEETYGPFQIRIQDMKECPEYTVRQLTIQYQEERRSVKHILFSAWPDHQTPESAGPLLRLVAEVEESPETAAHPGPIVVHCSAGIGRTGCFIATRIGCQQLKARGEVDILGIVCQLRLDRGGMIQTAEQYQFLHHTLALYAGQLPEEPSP

[13] = biological target: Diphosphomevalonate decarboxylase (Streptococcus pneumoniae serotype 2 (strain D39 / NCTC 7466), UniProt Q9FD53); assay: diphosphomevalonate decarboxylase inhibitor confirmation – biochemical, cuvette format, coupled NADH fluorescence (AID 1028); assay type: functional
Chain of Diphosphomevalonate decarboxylase (Q9FD53 whole entry): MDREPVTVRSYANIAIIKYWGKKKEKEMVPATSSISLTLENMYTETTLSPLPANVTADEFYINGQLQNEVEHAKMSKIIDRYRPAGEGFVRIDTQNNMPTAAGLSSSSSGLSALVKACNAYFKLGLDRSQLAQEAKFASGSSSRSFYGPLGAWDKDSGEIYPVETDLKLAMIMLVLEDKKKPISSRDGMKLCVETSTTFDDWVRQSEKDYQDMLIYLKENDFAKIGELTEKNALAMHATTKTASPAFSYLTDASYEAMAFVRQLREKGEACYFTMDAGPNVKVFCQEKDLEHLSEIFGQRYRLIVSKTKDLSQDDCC

Chain of Voltage-gated inwardly rectifying potassium channel KCNH2 (Q12809 whole entry): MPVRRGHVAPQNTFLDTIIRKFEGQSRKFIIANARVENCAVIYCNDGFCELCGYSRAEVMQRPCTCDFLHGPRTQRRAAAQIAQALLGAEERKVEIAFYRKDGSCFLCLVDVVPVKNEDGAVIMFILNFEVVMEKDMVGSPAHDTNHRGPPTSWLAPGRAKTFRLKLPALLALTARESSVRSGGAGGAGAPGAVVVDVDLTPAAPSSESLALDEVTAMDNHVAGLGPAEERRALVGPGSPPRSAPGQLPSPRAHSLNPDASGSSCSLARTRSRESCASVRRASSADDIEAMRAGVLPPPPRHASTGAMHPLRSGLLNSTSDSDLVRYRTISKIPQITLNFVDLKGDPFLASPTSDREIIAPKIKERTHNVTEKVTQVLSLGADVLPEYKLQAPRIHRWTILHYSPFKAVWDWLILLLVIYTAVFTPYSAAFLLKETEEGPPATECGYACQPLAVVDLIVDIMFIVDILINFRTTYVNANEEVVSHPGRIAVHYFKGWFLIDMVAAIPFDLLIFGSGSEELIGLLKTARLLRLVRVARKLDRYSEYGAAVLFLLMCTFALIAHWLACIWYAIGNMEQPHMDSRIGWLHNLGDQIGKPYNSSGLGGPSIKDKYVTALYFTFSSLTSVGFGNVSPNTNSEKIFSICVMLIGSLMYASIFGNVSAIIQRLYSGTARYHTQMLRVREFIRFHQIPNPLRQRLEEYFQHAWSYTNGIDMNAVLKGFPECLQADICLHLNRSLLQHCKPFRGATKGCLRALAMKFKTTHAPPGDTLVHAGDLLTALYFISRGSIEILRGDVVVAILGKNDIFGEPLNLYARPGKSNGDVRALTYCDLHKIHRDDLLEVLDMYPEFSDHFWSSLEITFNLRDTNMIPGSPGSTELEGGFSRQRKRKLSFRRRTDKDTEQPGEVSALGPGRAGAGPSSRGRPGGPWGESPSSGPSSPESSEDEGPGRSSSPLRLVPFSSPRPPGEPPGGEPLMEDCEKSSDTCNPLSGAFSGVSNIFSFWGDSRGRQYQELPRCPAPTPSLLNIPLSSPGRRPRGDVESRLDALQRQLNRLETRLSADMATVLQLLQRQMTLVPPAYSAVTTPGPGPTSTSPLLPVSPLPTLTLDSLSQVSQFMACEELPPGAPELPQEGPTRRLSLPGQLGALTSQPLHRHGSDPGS
Chain of Nonstructural protein 1 (Q194T2 whole entry): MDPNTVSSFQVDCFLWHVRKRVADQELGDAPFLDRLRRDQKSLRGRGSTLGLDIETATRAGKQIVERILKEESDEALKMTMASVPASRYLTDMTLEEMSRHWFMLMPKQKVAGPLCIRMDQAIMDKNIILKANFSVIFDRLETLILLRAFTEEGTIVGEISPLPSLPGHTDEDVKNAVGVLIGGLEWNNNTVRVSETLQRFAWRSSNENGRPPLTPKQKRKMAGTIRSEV
Chain of Voltage-gated N-type calcium channel alpha-1B subunit/Amyloid beta A4 precursor protein-binding family A member 1 (Q00975 whole entry): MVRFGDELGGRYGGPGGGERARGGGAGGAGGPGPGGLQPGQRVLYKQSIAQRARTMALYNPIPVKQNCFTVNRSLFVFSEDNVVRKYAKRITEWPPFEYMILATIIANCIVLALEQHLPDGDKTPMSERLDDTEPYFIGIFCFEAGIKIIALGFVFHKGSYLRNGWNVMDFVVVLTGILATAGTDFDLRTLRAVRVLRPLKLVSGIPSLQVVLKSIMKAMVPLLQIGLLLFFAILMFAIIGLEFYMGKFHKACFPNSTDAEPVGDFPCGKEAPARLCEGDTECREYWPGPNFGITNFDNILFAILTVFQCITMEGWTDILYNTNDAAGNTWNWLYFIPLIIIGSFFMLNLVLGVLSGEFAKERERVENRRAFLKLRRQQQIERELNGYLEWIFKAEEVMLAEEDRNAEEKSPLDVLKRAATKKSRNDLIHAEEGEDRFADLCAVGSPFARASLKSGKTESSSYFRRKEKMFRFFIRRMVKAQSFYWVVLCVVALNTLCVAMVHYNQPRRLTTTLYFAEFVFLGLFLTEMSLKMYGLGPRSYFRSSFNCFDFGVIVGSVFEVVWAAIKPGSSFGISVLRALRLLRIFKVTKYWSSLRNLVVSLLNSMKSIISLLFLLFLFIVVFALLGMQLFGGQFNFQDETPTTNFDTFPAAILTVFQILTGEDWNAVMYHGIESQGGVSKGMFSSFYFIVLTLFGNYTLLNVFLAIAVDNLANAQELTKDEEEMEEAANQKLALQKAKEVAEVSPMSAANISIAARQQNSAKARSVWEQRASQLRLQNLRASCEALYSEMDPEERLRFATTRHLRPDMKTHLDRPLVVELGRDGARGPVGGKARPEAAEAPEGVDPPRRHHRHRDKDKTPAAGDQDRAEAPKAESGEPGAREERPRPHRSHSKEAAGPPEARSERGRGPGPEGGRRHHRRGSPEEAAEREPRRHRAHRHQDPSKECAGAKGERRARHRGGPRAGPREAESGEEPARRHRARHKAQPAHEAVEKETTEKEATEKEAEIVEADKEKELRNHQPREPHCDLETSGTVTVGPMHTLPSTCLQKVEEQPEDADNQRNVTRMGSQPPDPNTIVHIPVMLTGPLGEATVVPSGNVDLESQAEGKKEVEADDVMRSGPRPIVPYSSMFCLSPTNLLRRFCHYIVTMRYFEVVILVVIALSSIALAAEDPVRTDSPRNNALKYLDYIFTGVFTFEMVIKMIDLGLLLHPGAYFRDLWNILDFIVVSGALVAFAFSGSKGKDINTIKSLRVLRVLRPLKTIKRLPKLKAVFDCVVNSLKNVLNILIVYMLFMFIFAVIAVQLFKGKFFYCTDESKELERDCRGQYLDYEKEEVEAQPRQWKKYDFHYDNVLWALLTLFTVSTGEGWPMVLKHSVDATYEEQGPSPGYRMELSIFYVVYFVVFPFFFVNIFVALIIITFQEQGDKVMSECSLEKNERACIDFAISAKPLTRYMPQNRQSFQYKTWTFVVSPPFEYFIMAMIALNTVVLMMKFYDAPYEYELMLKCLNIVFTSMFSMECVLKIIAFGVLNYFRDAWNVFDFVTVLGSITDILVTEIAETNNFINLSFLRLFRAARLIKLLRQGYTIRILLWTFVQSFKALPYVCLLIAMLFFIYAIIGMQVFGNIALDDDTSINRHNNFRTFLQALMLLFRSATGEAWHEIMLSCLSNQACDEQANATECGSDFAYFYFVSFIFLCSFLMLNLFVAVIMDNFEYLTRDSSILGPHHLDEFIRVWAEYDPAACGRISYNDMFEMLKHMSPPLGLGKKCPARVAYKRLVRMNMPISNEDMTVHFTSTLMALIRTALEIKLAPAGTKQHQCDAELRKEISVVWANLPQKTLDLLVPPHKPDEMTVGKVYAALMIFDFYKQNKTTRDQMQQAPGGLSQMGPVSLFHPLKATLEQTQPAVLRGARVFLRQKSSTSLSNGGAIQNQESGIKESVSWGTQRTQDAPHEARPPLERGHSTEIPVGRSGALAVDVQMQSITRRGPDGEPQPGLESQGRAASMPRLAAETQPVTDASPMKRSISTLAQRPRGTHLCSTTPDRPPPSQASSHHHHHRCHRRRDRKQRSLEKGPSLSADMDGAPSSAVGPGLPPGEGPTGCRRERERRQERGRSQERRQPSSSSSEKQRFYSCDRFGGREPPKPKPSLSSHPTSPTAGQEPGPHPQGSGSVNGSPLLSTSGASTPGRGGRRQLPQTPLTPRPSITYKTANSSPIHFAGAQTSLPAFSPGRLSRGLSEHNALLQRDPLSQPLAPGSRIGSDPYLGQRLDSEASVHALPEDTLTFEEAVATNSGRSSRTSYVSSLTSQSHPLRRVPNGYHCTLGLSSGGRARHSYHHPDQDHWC
Chain of Voltage-gated N-type calcium channel alpha-1B subunit/Amyloid beta A4 precursor protein-binding family A member 1 (Q02410 whole entry): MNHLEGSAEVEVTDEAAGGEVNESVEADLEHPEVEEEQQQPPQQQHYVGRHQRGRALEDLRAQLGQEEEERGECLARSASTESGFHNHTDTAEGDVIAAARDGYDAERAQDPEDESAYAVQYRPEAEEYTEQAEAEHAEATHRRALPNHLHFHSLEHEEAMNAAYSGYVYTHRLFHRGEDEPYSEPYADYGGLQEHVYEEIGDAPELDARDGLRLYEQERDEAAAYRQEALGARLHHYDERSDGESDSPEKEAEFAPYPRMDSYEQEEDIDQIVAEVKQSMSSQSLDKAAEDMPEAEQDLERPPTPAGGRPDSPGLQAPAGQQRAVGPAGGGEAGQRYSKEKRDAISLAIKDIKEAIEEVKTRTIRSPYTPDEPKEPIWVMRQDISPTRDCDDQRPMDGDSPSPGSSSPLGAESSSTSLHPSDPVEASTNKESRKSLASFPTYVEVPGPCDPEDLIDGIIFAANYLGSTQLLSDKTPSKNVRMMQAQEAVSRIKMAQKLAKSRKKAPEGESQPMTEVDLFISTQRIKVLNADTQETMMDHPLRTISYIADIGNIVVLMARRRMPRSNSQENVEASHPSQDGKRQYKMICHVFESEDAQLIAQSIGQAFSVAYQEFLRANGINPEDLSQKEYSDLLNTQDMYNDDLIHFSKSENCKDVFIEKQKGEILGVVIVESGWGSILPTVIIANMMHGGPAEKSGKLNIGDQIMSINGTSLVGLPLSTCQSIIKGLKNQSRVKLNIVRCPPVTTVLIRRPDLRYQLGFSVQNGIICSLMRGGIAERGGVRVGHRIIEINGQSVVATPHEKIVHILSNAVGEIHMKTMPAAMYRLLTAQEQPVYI
Chain of Genome polyprotein (Q2Q167 whole entry): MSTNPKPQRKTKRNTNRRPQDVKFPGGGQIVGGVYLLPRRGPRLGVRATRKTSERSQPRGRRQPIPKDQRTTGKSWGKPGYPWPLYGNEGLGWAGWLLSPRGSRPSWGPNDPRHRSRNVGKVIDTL

OC1c2cc(Br)ccc2N=C2CCCCCN21 (centres undefined)
CC50 (Vero [1]): 61 µM (active)
CC50 (Vero [2]): 37.6 µM (active)

Cc1cccc2sc(NNC(=O)c3ccc(S(=O)(=O)N4CCCC(C)C4)cc3)nc12 (centres undefined)
EC50 (Galanin receptor type 2): > 55.7 µM (not active)
IC50 (Nonstructural protein 1): > 100 µM (active)
EC50 [3]: 0.493 µM (active)
AC50 (cells [4]): 8.96 µM (active)
AC50 (INS1): 1.12 µM (active)
EC50 (Streptococcus): 8.56 µM (active)
AC50 [5]: 4.56 µM (active)
IC50 [6]: 21.3 µM (inactive)
AC50 (cells [7]): 4.7 µM (active)

CCOC(=O)c1sc(NC(=S)NC(=O)c2ccccc2)nc1C
EC50 [8]: 17.6 µM (active)
EC50 [9]: 3.68 µM (active)
EC50 (H4): 25 µM (active)
EC50 [10]: 7.98 µM (active)

Nc1cccc(-c2nc3cc(S(=O)(=O)c4ccc5oc(-c6cccc(N)c6)nc5c4)ccc3o2)c1
IC50 [11]: 13.2 µM (active)

Sc1nc(Cc2ccccc2)nc2ccccc12
IC50 (Genome polyprotein): > 49.8 µM (not active)

O=C(Nc1nncs1)c1c(F)c(F)c(F)c(F)c1F
IC50 [12]: > 100 µM (not active)

O=C(NCc1ccccc1)c1ccc(-n2sc3ccccc3c2=O)cc1
IC50 [13]: 9.98 µM (active)
